Experimental data from US10906904B2, “ADO-resistant cysteamine analogs and uses thereof” (HORIZON ORPHAN LLC, priority 2015, dated 2021).
Read-outs that look alike come from different tables or passages of the source.

Tests used:
St-HdhQ^111/111 cells = test: Glutamate-induced neuronal excitotoxicity assay; type: cell-based; settings: STHdhQ111, 6 mM L-glutamate 24 hours, % of effect of 100 μM cysteamine; for viability at 10 µM: read-out: HdhQ^111/111 cell % survival (mean ± STD) Test Conc. 10 μM; for viability at 100 µM: read-out: HdhQ^111/111 cell % survival (mean ± STD) Test Conc. 100 μM
Experimental: The ability of test compounds to inhibit glutamate-induced excitotoxicity (neuroprotection) in St-HdhQ^111/111 cells was determined by incubating compounds with cells for 60 min at 33° C., 95% (v:v) air/5% (v:v) CO2 in Dulbecco's Modified Eagle Media. Following this, excitotoxicity was induced by the addition of 6 mM L-glutamate for 24 hours. Cell viability was assessed by measuring ATP levels using a luminescent-based CellTitre Glo assay (Promega). Compound neuroprotection (% cell survival) was expressed as a % of the effect recorded with 100 μM cysteamine (denoted as 100% cell survival).

[1] = test system: cystinotic human fibroblasts; test: Cystine depletion assay; type: cell-based; settings: for Cystine Depletion (%) / Emax: relative to cystine depletion by cysteamine (100%) at a similar concentration; for cystine depletion levels (in words): compared to cysteamine; for Cystine depletion: compound at 50 μM or 100 μM, Tables 1-3; for Emax: Homo sapiens, Fibroblast, 1 h
Experimental: The ability of test compounds to deplete cystine from cystinotic human fibroblasts (Coriell) was determined by incubating compounds with cells for 60 min at 37° C., 95% (v/v) air/5% (v/v) CO2 in Minimal Essential Media Eagle. Treated cell samples were subsequently harvested, then homogenized to ensure plasma and lysosomal membrane disruption. Protein was removed by acid precipitation and cystine in the supernatant measured using LC-MS/MS and HILIC chromatography. Protein levels were determined and cystine levels reported as nM per mg/ml protein. Cystine levels after test compound treatment were expressed as a percentage of that of untreated control cells.
Compounds were assayed at a concentration of 50 μM or 100 μM according to the general methods described above.
Cystine depletion levels for the compounds are expressed in Table 4 as a percent relative to the cystine depletion achieved by cysteamine (c.f. cysteamine 100%) at a similar concentration.
Cystine depletion levels for each of the compounds in Table 5 are expressed as a percent relative to the cystine depletion achieved by cysteamine (c.f. cysteamine 100%) at a similar concentration.

human recombinant ADO = target: T1, human recombinant ADO (Homo sapiens, UniProt Q96SZ5); type: in vitro ADME; settings: for ADO metabolism / ADO Metabolism Assay (%) Mean Value: human
T1 sequence (Q96SZ5 1-270): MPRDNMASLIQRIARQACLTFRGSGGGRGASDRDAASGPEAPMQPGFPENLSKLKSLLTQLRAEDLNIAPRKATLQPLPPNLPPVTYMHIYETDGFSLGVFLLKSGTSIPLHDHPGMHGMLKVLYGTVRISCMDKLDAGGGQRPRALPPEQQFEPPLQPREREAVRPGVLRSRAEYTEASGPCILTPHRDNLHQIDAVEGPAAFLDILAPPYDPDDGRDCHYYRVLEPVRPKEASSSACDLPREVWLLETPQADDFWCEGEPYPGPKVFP
Experimental: The rate of ADO metabolism was determined by incubating 15 mM test compound with 60 μg/ml human recombinant ADO and 20 nM MitoXpress® O2-sensitive fluorescent probe (Luxcel) at 37° C. in assay buffer/salt in a sealed assay chamber. The initial rate of fluorescence (excitation λ380 nm and emission λ650 nm) increase was used to measure ADO-dependent oxygen depletion activity. The ability of ADO to metabolize compounds and concomitantly consume oxygen was expressed relative to that of 15 mM cysteamine.

Cystine reactivity assay = test: Cystine reactivity assay; design: Cystine Reactivity: unit not given here; settings: for Cystine Reactivity Assay (30° C.) (%) Mean Value: percentage of 3 mM cysteamine
Experimental: Cystine reactivity was assessed by incubating 3 mM test compound with 100 nM BODIPY® FL L-Cystine (Life Tech.) at 30° C., pH 7.4 in phosphate buffer. […] Compound cystine reactivity was expressed as a percentage of that of 3 mM cysteamine.
Under resting conditions, the inherent fluorescence of BODIPY® FL L-cystine was very low due to the spatial proximity of the two BODIPY molecules causing quenching. Under chemical reaction (disruption of the S—S bond), the spatial distance was increased, the quenching lost, and measured fluorescence increased. Time (minutes) vs. fluorescence (relative fluorescence units—RFU) was plotted and linear regression analysis was performed to generate a slope value corresponding to the reaction rate in RFU/min and an R2 value.

[2] = Table 5, read-out: Cystine Depletion (%) Mean Value
[3] = Table 4, read-out: Cystine Depletion (%)

F[C@@H]1CNCC[C@H]1S gave a viability at 10 µM (St-HdhQ^111/111 cells) of 3 ± 7% and a viability at 100 µM (St-HdhQ^111/111 cells) of 86 ± 10%.

Work on CN1CC[C@@H](S)C1 yielded a viability at 10 µM (St-HdhQ^111/111 cells) of 13 ± 13% and a viability at 100 µM (St-HdhQ^111/111 cells) of 93 ± 9%.

Work on CN1CC[C@H](S)C1 yielded a viability at 10 µM (St-HdhQ^111/111 cells) of 11 ± 11% and a viability at 100 µM (St-HdhQ^111/111 cells) of 95 ± 6%.

In the case of C[N+]1(C)CCC(S)CC1, the viability at 10 µM (St-HdhQ^111/111 cells) is reported as 1 ± 6% and the viability at 100 µM (St-HdhQ^111/111 cells) is reported as 16 ± 7%.

For C[C@H](N)CS (single isomer, unassigned) [Compound 42-98], the “Cystine Depletion (%)” value ([1]; Table 4) was 70%.

For C[C@@H](N)CS (single isomer, unassigned) [Compound 42099], the “Cystine Depletion (%)” value ([1]; Table 4) was 79%.

In the case of CNCCS [Compound 1a], the “metabolism by ADO compared to cysteamine (in words)” value (human recombinant ADO) is reported as “significantly reduced metabolism by ADO compared to cysteamine”, the “cystine depletion levels (in words)” value [1] is reported as “slightly decreased cystine depletion levels” and the Cystine depletion [1] is reported as 85%. The “Cystine depletion ( ) = disulfide efficacy” value ([1]; disulfide of the compound, 50 μM or 100 μM) was “(94%)”.

In the case of SC1CNC1 [Compound 2a], the “metabolism by ADO compared to cysteamine (in words)” value (human recombinant ADO) is reported as “significantly reduced metabolism by ADO compared to cysteamine”, the “cystine depletion levels (in words)” value [1] is reported as “slightly decreased” and the Cystine depletion [1] is reported as 82%.

With CC(C)(S)CN [Compound 3a] the “Cystine Reactivity” value (Cystine reactivity assay; Tables 1-3) was 2284, the “metabolism by ADO compared to cysteamine (in words)” value (human recombinant ADO) was “significantly reduced metabolism by ADO compared to cysteamine” and the ADO metabolism (human recombinant ADO; 15 mM) was 14%. For the same compound, the “cystine depletion levels (in words)” value [1] was “slightly decreased” and the Cystine depletion [1] was 32%.

For CC(C)(N)CS [Compound 3b], the “cystine depletion levels (in words)” value [1] was “similar” and the Cystine depletion [1] was 97%.

For NC1(CS)CC1 [Compound 3d], the “metabolism by ADO compared to cysteamine (in words)” value (human recombinant ADO) was “significantly reduced metabolism by ADO compared to cysteamine”, the ADO metabolism (human recombinant ADO; 15 mM) was 14% and the “cystine depletion levels (in words)” value [1] was “slightly decreased”. For the same compound, the Cystine depletion [1] was 55%.

For C[C@H](CS)C(=O)N1CCC[C@H]1C(=O)O [Compound 653], the “Cystine Reactivity Assay (30° C.) (%) Mean Value” (Cystine reactivity assay; Table 5) was <50%, the “ADO Metabolism Assay (%) Mean Value” (human recombinant ADO) was <25% and the Emax [1, 2] was 23%.

With CCN(CC)C(=S)SSC(=S)N(CC)CC [Compound 981] the “Cystine Reactivity Assay (30° C.) (%) Mean Value” (Cystine reactivity assay; Table 5) was <50%, the “ADO Metabolism Assay (%) Mean Value” (human recombinant ADO; 15 mM) was <25% and the Emax [1, 2] was 25%.

In the case of Nc1nc2[nH]cnc2c(=S)[nH]1 [Compound 1141], the “Cystine Reactivity Assay (30° C.) (%) Mean Value” (Cystine reactivity assay; Table 5) is reported as <50% and the Emax [1, 2] is reported as 0%.

With Cn1cc[nH]c1=S [Compound 1176] the “Cystine Reactivity Assay (30° C.) (%) Mean Value” (Cystine reactivity assay; Table 5) was <50%, the “ADO Metabolism Assay (%) Mean Value” (human recombinant ADO; 15 mM) was <25% and the Emax [1, 2] was 10%.

In the case of CC(CS)Cc1ccccc1 (stereo not drawn) [Compound 2403], the “Cystine Reactivity Assay (30° C.) (%) Mean Value” (Cystine reactivity assay; Table 5) is reported as <50%, the “ADO Metabolism Assay (%) Mean Value” (human recombinant ADO; 15 mM) is reported as <25% and the Emax [1, 2] is reported as 19%.

In the case of Oc1ccc2ccccc2c1SSc1c(O)ccc2ccccc12 [Compound 2415], the Emax [1, 2] is reported as 14%.

In the case of CNCCS [Compound 18781], the “Cystine Depletion (%)” value ([1]; Table 4) is reported as 92%.

In the case of NC1(CS)CC1 [Compound 41448], the “ADO Metabolism Assay (%) Mean Value” (human recombinant ADO; 15 mM) is reported as 25-75% and the Emax [1, 3] is reported as 55%.

Compound CC(C)(N)CS [Compound 42097] has an Emax [1, 3] of 97%.

Compound CN1CC(SSC2CN(C)C2)C1 [Compound 42151] has an Emax [1, 3] of 133%.

In the case of CN1CCCC(SSC2CCCN(C)C2)C1 (stereo not drawn) [Compound 42152], the Emax [1, 3] is reported as 126%.

For SCC1CCN1 (stereo not drawn) [Compound 42212], the “Cystine Reactivity Assay (30° C.) (%) Mean Value” (Cystine reactivity assay; Table 4) was <50%.

In the case of Sc1ccncc1 [Compound 42338], the “Cystine Reactivity Assay (30° C.) (%) Mean Value” (Cystine reactivity assay; Table 4) is reported as <50%.

Work on CN1CC[C@@H](SS[C@H]2CCN(C)C2)C1 [Compound 42342] yielded an Emax [1, 3] of 91%.

Work on CN1CC[C@H](SS[C@H]2CCN(C)C2)C1 [Compound 42343] yielded an Emax [1, 3] of 84%.

CN1C2CCC1CC(SSC1CC3CCC(C1)N3C)C2 (stereo not drawn) [Compound 42344] showed an Emax [1, 3] of 38%.
